Measurements from ChEMBL document CHEMBL4673175, “An epigrammatic status of the azole-based antimalarial drugs” (RSC Med Chem, 2020).
In brackets after ≈: the same amount, converted by molar mass.

Legend:
Plasmodium falciparum = experiment: Antimalarial activity against chloroquine sensitive Plasmodium falciparum assessed as reduction in parasite growth incubated for 48 hrs; format: functional, organism-based
Hemozoin = experiment: Inhibition of beta-hematin formation at 5 to 100 mM incubated for 48 hrs; conditions: dose 5-100 mM
Plasmodium = experiment: Antimalarial activity against Plasmodium; format: functional

Compound | inhibition (Hemozoin) | IC50 (Plasmodium falciparum) | other results
Cc1nn(-c2ccccc2)c(-n2ccnc2)c1C1CC(c2ccc(F)cc2)=NO1 (stereo not drawn) | – | 0.012 µg/mL (≈ 0.031 µM) | –
Cc1nn(-c2ccccc2)c(-n2cncn2)c1C1=CC(c2cc[nH]c2)=NC2Nc3ccccc3N12 (stereo not drawn) | – | 0.03 µg/mL (≈ 0.0653 µM) | –
COc1cccc(NC(=S)N/N=C(\C)c2nc3cc(Cl)ccc3[nH]2)c1 | – | – | IC50 (Plasmodium): 0.003 µg/mL (≈ 0.00802 µM)
C/C(=N\NC(=S)NC1CCCCC1)c1nc2cc(Cl)ccc2[nH]1 | – | – | IC50 (Plasmodium): 0.003 µg/mL (≈ 0.00857 µM)
C/C(=N\NC(=S)Nc1ccc(I)cc1)c1nc2cc(Cl)ccc2[nH]1 | – | – | IC50 (Plasmodium): 0.003 µg/mL (≈ 0.00639 µM)
Cc1nn(-c2ccccc2)c(-n2cncn2)c1C1=CC(c2ccccc2)=NC2Nc3ccccc3N12 (stereo not drawn) | – | 0.03 µg/mL (≈ 0.0638 µM) | –
Cc1cn(-c2c(C3CC(c4ccccc4)=NO3)c(C)nn2-c2ccccc2)cn1 (stereo not drawn) | – | 0.012 µg/mL (≈ 0.0313 µM) | –
C/C(=N\NC(=S)Nc1ccc(Cl)cc1Cl)c1nc2cc(Cl)ccc2[nH]1 | – | – | IC50 (Plasmodium): 0.003 µg/mL (≈ 0.00727 µM)
Cc1nn(-c2ccccc2)c(-n2ccnc2)c1C1=CC(c2ccc(F)cc2)=NC2Nc3ccccc3N12 (stereo not drawn) | – | 0.03 µg/mL (≈ 0.0615 µM) | –
Cc1nn(-c2ccccc2)c(-n2cncn2)c1C1=CC(c2ccc(F)cc2)=NC2Nc3ccccc3N12 (stereo not drawn) | – | 0.03 µg/mL (≈ 0.0614 µM) | –
Cc1nn(-c2ccccc2)c(-n2cncn2)c1C1=CC(c2ccc(O)cc2)=NC2Nc3ccccc3N12 (stereo not drawn) | – | 0.03 µg/mL (≈ 0.0617 µM) | –
Cc1nn(-c2ccccc2)c(-n2ccnc2)c1C1CC(c2ccccc2)=NO1 (stereo not drawn) | – | 0.012 µg/mL (≈ 0.0325 µM) | –
Cc1nn(-c2ccccc2)c(-n2ccnc2)c1C1=CC(c2cccs2)=NC2Nc3ccccc3N12 (stereo not drawn) | – | 0.03 µg/mL (≈ 0.0631 µM) | –
Cc1nn(-c2ccccc2)c(-n2ccnc2)c1C1CC(c2ccc(Br)cc2)=NO1 (stereo not drawn) | – | 0.012 µg/mL (≈ 0.0268 µM) | –
C/C(=N\NC(=S)NC(C)(C)C)c1nc2cc(Cl)ccc2[nH]1 | – | – | IC50 (Plasmodium): 0.003 µg/mL (≈ 0.00926 µM)
Cc1cn(-c2c(C3CC(c4ccc(F)cc4)=NO3)c(C)nn2-c2ccccc2)cn1 (stereo not drawn) | – | 0.012 µg/mL (≈ 0.0299 µM) | –
C/C(=N\NC(=S)NC(=O)c1ccccc1)c1nc2cc(Cl)ccc2[nH]1 | – | – | IC50 (Plasmodium): 0.003 µg/mL (≈ 0.00807 µM)
Cc1nn(-c2ccccc2)c(-n2ccnc2)c1C1CC(c2ccccc2)=NN1 (stereo not drawn) | – | 0.012 µg/mL (≈ 0.0326 µM) | –
Cc1cn(-c2c(C3CC(c4ccc(O)cc4)=NN3)c(C)nn2-c2ccccc2)cn1 (stereo not drawn) | – | 0.012 µg/mL (≈ 0.0301 µM) | –
Cc1nn(-c2ccccc2)c(-n2ccnc2)c1C1CC(c2ccc(-c3ccccc3)cc2)=NN1 (stereo not drawn) | – | 0.012 µg/mL (≈ 0.027 µM) | –
Cc1nn(-c2ccccc2)c(-n2ccnc2)c1C1=CC(c2ccc(O)cc2)=NC2Nc3ccccc3N12 (stereo not drawn) | – | 0.03 µg/mL (≈ 0.0618 µM) | –

Compound | inhibition (Hemozoin) | IC50 (Plasmodium falciparum) | other results
CCNC(=S)N/N=C(\C)c1nc2cc(Cl)ccc2[nH]1 | – | – | IC50 (Plasmodium): 0.003 µg/mL (≈ 0.0101 µM)
CCCCNC(=S)N/N=C(\C)c1nc2cc(Cl)ccc2[nH]1 | – | – | IC50 (Plasmodium): 0.003 µg/mL (≈ 0.00926 µM)
Cc1cn(-c2c(C3CC(c4ccc(Br)cc4)=NN3)c(C)nn2-c2ccccc2)cn1 (stereo not drawn) | – | 0.012 µg/mL (≈ 0.026 µM) | –
COc1ccc(C2=NOC(c3c(C)nn(-c4ccccc4)c3-n3ccnc3)C2)cc1 (stereo not drawn) | – | 0.012 µg/mL (≈ 0.03 µM) | –
COc1ccc(C2=NNC(c3c(C)nn(-c4ccccc4)c3-n3cnc(C)c3)C2)cc1 (stereo not drawn) | – | 0.012 µg/mL (≈ 0.0291 µM) | –
Cc1nn(-c2ccccc2)c(-n2cncn2)c1C1=CC(c2cccs2)=NC2Nc3ccccc3N12 (stereo not drawn) | – | 0.03 µg/mL (≈ 0.0629 µM) | –
C/C(=N\NC(N)=S)c1nc2cc(Cl)ccc2[nH]1 | – | – | IC50 (Plasmodium): 0.003 µg/mL (≈ 0.0112 µM)
C/C(=N\NC(=S)Nc1ccc(F)cc1)c1nc2cc(Cl)ccc2[nH]1 | – | – | IC50 (Plasmodium): 0.003 µg/mL (≈ 0.00829 µM)
Cc1cn(-c2c(C3CC(c4ccc(-c5ccccc5)cc4)=NN3)c(C)nn2-c2ccccc2)cn1 (stereo not drawn) | – | 0.012 µg/mL (≈ 0.0262 µM) | –
Cc1cn(-c2c(C3CC(c4ccc(O)cc4)=NO3)c(C)nn2-c2ccccc2)cn1 (stereo not drawn) | – | 0.012 µg/mL (≈ 0.03 µM) | –
C/C(=N\NC(=S)Nc1ccc([N+](=O)[O-])cc1)c1nc2cc(Cl)ccc2[nH]1 | – | – | IC50 (Plasmodium): 0.003 µg/mL (≈ 0.00772 µM)
Cc1nn(-c2ccccc2)c(-n2ccnc2)c1C1=CC(c2cc[nH]c2)=NC2Nc3ccccc3N12 (stereo not drawn) | – | 0.03 µg/mL (≈ 0.0654 µM) | –
COc1ccc(C2=NNC(c3c(C)nn(-c4ccccc4)c3-n3ccnc3)C2)cc1 (stereo not drawn) | – | 0.012 µg/mL (≈ 0.0301 µM) | –
Cc1nn(-c2ccccc2)c(-n2ccnc2)c1C1CC(c2ccc(-c3ccccc3)cc2)=NO1 (stereo not drawn) | – | 0.012 µg/mL (≈ 0.0269 µM) | –
C/C(=N\NC(=S)Nc1ccccc1)c1nc2cc(Cl)ccc2[nH]1 | – | – | IC50 (Plasmodium): 0.003 µg/mL (≈ 0.00872 µM)
Cc1cn(-c2c(C3CC(c4ccccc4)=NN3)c(C)nn2-c2ccccc2)cn1 (stereo not drawn) | – | 0.012 µg/mL (≈ 0.0314 µM) | –
COc1ccc(C2=NOC(c3c(C)nn(-c4ccccc4)c3-n3cnc(C)c3)C2)cc1 (stereo not drawn) | – | 0.012 µg/mL (≈ 0.029 µM) | –
COc1ccc(C2=NC3Nc4ccccc4N3C(c3c(C)nn(-c4ccccc4)c3-n3cncn3)=C2)cc1 (stereo not drawn) | – | 0.03 µg/mL (≈ 0.0599 µM) | –
Cc1nn(-c2ccccc2)c(-n2ccnc2)c1C1CC(c2ccc(F)cc2)=NN1 (stereo not drawn) | – | 0.012 µg/mL (≈ 0.0311 µM) | –
Cc1nn(-c2ccccc2)c(-n2ccnc2)c1C1CC(c2ccc(O)cc2)=NN1 (stereo not drawn) | – | 0.012 µg/mL (≈ 0.0312 µM) | –

The next lines start with results.

inhibition (Hemozoin) | Compound | IC50 (Plasmodium falciparum) | other results
< 98% | O=C(Nc1ccc(Br)cc1)c1ccc2[nH]c(-c3ccc([N+](=O)[O-])s3)nc2c1 | – | –
< 98% | O=C(Nc1ccc(Cl)cc1)c1ccc2[nH]c(-c3ccc([N+](=O)[O-])o3)nc2c1 | – | –
< 98% | COc1cccc(NC(=O)c2ccc3[nH]c(-c4ccc([N+](=O)[O-])o4)nc3c2)c1 | – | –
< 98% | Cc1ccccc1NC(=O)c1ccc2[nH]c(-c3ccc([N+](=O)[O-])o3)nc2c1 | – | –
< 98% | Cc1cccc(NC(=O)c2ccc3[nH]c(-c4ccc([N+](=O)[O-])o4)nc3c2)c1 | – | –
< 98% | Cc1cccc(NC(=O)c2ccc3[nH]c(-c4ccc([N+](=O)[O-])s4)nc3c2)c1 | – | –
< 98% | O=C(Nc1ccc(C(F)(F)F)cc1)c1ccc2[nH]c(-c3ccc([N+](=O)[O-])o3)nc2c1 | – | –
< 98% | COc1ccc(NC(=O)c2ccc3[nH]c(-c4ccc([N+](=O)[O-])o4)nc3c2)cc1Cl | – | –
< 98% | Cc1ccc(C)c(NC(=O)c2ccc3[nH]c(-c4ccc([N+](=O)[O-])s4)nc3c2)c1 | – | –
< 98% | Cc1ccc(C)c(NC(=O)c2ccc3[nH]c(-c4ccc([N+](=O)[O-])o4)nc3c2)c1 | – | –
< 98% | O=C(Nc1ccc(C(F)(F)F)cc1)c1ccc2[nH]c(-c3ccc([N+](=O)[O-])s3)nc2c1 | – | –
< 98% | Cc1ccccc1NC(=O)c1ccc2[nH]c(-c3ccc([N+](=O)[O-])s3)nc2c1 | – | –
< 98% | O=C(Nc1ccccc1Cl)c1ccc2[nH]c(-c3ccc([N+](=O)[O-])s3)nc2c1 | – | –
< 98% | COc1ccc(NC(=O)c2ccc3[nH]c(-c4ccc([N+](=O)[O-])o4)nc3c2)c(OC)c1 | – | –
< 98% | Cc1ccc(NC(=O)c2ccc3[nH]c(-c4ccc([N+](=O)[O-])o4)nc3c2)cc1C | – | –
< 98% | COc1cc(NC(=O)c2ccc3[nH]c(-c4ccc([N+](=O)[O-])s4)nc3c2)cc(OC)c1OC | – | –
< 98% | Cc1cc(C)cc(NC(=O)c2ccc3[nH]c(-c4ccc([N+](=O)[O-])o4)nc3c2)c1 | – | –
< 98% | Cc1ccc(NC(=O)c2ccc3[nH]c(-c4ccc([N+](=O)[O-])s4)nc3c2)c(C)c1 | – | –
< 98% | COc1cc(NC(=O)c2ccc3[nH]c(-c4ccc([N+](=O)[O-])o4)nc3c2)cc(OC)c1OC | – | –
< 98% | COc1cccc(NC(=O)c2ccc3[nH]c(-c4ccc([N+](=O)[O-])s4)nc3c2)c1 | – | –
< 98% | Cc1ccc(NC(=O)c2ccc3[nH]c(-c4ccc([N+](=O)[O-])s4)nc3c2)cc1C | – | –
< 98% | O=C(Nc1ccc(Cl)cc1)c1ccc2[nH]c(-c3ccc([N+](=O)[O-])s3)nc2c1 | – | –
< 98% | COc1ccc(NC(=O)c2ccc3[nH]c(-c4ccc([N+](=O)[O-])s4)nc3c2)cc1Cl | – | –
< 98% | Cc1cc(C)cc(NC(=O)c2ccc3[nH]c(-c4ccc([N+](=O)[O-])s4)nc3c2)c1 | – | –
< 98% | O=C(Nc1ccc(Br)cc1)c1ccc2[nH]c(-c3ccc([N+](=O)[O-])o3)nc2c1 | – | –
< 98% | O=C(Nc1ccccc1Cl)c1ccc2[nH]c(-c3ccc([N+](=O)[O-])o3)nc2c1 | – | –
< 98% | COc1ccc(NC(=O)c2ccc3[nH]c(-c4ccc([N+](=O)[O-])s4)nc3c2)c(OC)c1 | – | –
